Test system: TGR12
Design: species or system human
Details: CHO-TGR12GFP, 200 pM [125I]-rCST14 (Y0), 4° C. 2 hours; read-out: IC50 (competitive binding, Hill plot analysis)
Method: [^125I]-Labeled rat cortistatin-14 (Tyr0) (hereinafter [^125I]-rCST14 (Y0)) used for the competitive binding assay was prepared as follows. After 3 nmol/6 μL of rCST14 (Y0) (Funakoshi Co.), 6 μL of 10 μg/mL lactoperoxidase (in 0.1M HEPES (pH 7, 4)), 6 μL of 0.001% H2O2 and 6 μL of 37 MBq NaI (6 μL of 15 mg/100 mL NaI was used in cold run) were mixed, the mixture was reacted at room temperature for 20 minutes. […] For fractionation, TSKgel ODS-80™ was used, 10% MeCN/0.1% TFA was used as eluant A and 60% MeCN/0.1% TFA was used as eluant B at a gradient of 0-25 (2 mins.), 25-27.5 (3 mins.) and 27.5-35 (60 mins.), respectively; and the flow rate was 1 mL/min.
CHO/dhfr^− cells (hereinafter CHO) were incubated in α-MEM (Invitrogen) supplemented with 10% fetal calf serum. […]
The binding assay using CHO-TGR12GFP was performed as follows. […] After washing 3 times with 500 μL of the assay buffer, the cells were lysed in 250 μL of 0.5N NaOH and the lysate was recovered for measurement of the radioactivity.

For `CC[C@H](C)[C@H](NC(=O)CNC(=O)[C@H](CC(=O)O)NC(=O)[C@H](CO)NC(=O)[C@@H](N)Cc1c[nH]cn1)C(=O)N[C@@H](Cc1ccccc1)C(=O)N[C@H](C(=O)N[C@@H](CC(=O)O)C(=O)N[C@@H](CO)C(=O)N[C@@H](Cc1ccc(O)cc1)C(=O)N[C@@H](CO)C(=O)N[C@@H](CCCNC(=N)N)C(=O)N[C@@H](Cc1ccc(O)cc1)C(=O)N[C@@H](CCCNC(=N)N)C(=O)N[C@@H](CCCCN)C(=O)N[C@@H](CCC(N)=O)C(=O)N[C@@H](CCSC)C(=O)N[C@@H](C)C(=O)N[C@H](C(=O)N[C@@H](CCCCN)C(=O)N[C@@H](CCCCN)C(=O)N[C@@H](Cc1ccc(O)cc1)C(=O)N[C@@H](CC(C)C)C(=O)N[C@@H](C)C(=O)N[C@@H](C)C(=O)N[C@H](C(=O)N[C@@H](CC(C)C)C(N)=O)C(C)C)C(C)C)[C@@H](C)O` [PACAP-27], the IC50 was 264 nM.
`CC[C@H](C)[C@H](NC(=O)[C@H](CO)NC(=O)[C@H](CC(N)=O)NC(=O)[C@H](CC(C)C)NC(=O)[C@H](Cc1ccc(O)cc1)NC(=O)[C@H](CCCCN)NC(=O)[C@H](CCCCN)NC(=O)[C@@H](NC(=O)[C@H](C)NC(=O)[C@H](CCSC)NC(=O)[C@H](CCC(N)=O)NC(=O)[C@H](CCCCN)NC(=O)[C@H](CCCNC(=N)N)NC(=O)[C@H](CC(C)C)NC(=O)[C@H](CCCNC(=N)N)NC(=O)[C@@H](NC(=O)[C@H](Cc1ccc(O)cc1)NC(=O)[C@H](CC(N)=O)NC(=O)[C@H](CC(=O)O)NC(=O)[C@@H](NC(=O)[C@H](Cc1ccccc1)NC(=O)[C@@H](NC(=O)[C@H](C)NC(=O)[C@H](CC(=O)O)NC(=O)[C@H](CO)NC(=O)[C@@H](N)Cc1c[nH]cn1)C(C)C)[C@@H](C)O)[C@@H](C)O)C(C)C)C(=O)N[C@@H](CC(C)C)C(=O)N[C@@H](CC(N)=O)C(N)=O` [VIP, vasoactive intestinal polypeptide] was tested, and the IC50 was 2040 nM.
